Laboratory results taken from patent US4138492A, “Aromatic amides of heterocyclic compounds and therapeutic compositions containing same” (priority 1974, dated 1979).
Where a name gives a salt, the structure may show the parent alone.

System: apomorphine-induced gnawing
Test: Antiapomorphine activity (apomorphine-induced gnawing) in the rat
Format: in vivo
Conditions: for minimal effective dose / ED50: Rattus norvegicus; for minimal effective dose: read-out: Antiapomorphine in rat; for activity as an anti-emetic: compared with metoclopramide, from Table I; for ED50: po, per os, Table I, read-out: ED50 Values
Text: A number of the compounds of the present invention were screened in parallel with metoclopramide for potential anti-emetic effects against apomorphine-induced gnawing in the rat and as local anaesthetics on the rat sciatic nerve (Table I).
*Antiapomorphine activity in rat scored as […]

Compound	minimal effective dose [mg/kg]	activity as an anti-emetic	ED50 [mg/kg]	antiapomorphine activity in the rat (even at high doses)
O=C(CCl)Nc1ccc(C(=O)NC2CCN(Cc3ccccc3)CC2)cc1 [Compound 6, N-[4'-(1'-benzyl)piperidyl]-4-(α-chloroacetamido) benzamide hydrochloride]	50			
COc1cc(N)c(Cl)cc1C(=O)NC1CCN(CC=Cc2ccccc2)CC1 [Compound 16, N-[4'-(1'-cinnamyl)-piperidyl]-2-methoxy-4-amino-5-chlorobenzamide hydrochloride]	25			
COc1cc(N)c(Cl)cc1C(=O)NC1CCN(Cc2ccc3c(c2)OCO3)CC1 [Compound 15]	6.25	more active as an anti-emetic		
COc1cc(N)c(Cl)cc1C(=O)NC1CCN(Cc2ccc(Cl)cc2)CC1 [Compound 12, N-[4'-(1'-p-chlorobenzyl)-piperidyl]-2-methoxy-4-amino-5-chloro-benzamide hydrochloride]	3.12	more active as an anti-emetic		
COc1cc(NC(C)=O)c(Cl)cc1C(=O)NC1CCN(Cc2ccccc2)CC1 [Compound 1, N-[4'-(1'-benzyl)piperidyl]-2-methoxy-4-acetamido-5-chlorobenzamide]	12.5		~25	
COc1cc(N)ccc1C(=O)NC1CCN(Cc2ccccc2)CC1 [Compound 8, N-[4'-(1'-benzyl)-piperidyl]-2-methoxy-4-aminobenzamide dihydrochloride]	6.25	more active as an anti-emetic	< 25	
COc1cc(N)c(Cl)cc1C(=O)NC1CCN(C(c2ccccc2)c2ccccc2)CC1 [Compound 19, N-[4'-(1'-diphenyl-methyl)-piperidyl]-2-methoxy-4-amino-5-chloro-benzamide hydrochloride]	50			
COc1cc(NC(=O)CCl)ccc1C(=O)NC1CCN(Cc2ccccc2)CC1 [Compound 5, N-[4'-(1'-benzyl)piperidyl]-2-methoxy-4-α-chloroacetamidobenzamide hydrochloride]	25			
COc1cc(NC(=O)C(F)(F)F)ccc1C(=O)NC1CCN(Cc2ccccc2)CC1 [Compound 7, N-[4'-(1'-benzyl)piperidyl]-2-methoxy-4-(α,α,α-trifluoroacetamido) benzamide hydrochloride]	25		< 25	
COc1ccc(S(N)(=O)=O)cc1C(=O)NC1CCN(Cc2ccccc2)CC1 [N-[4'-(1'-benzyl)piperidyl]-2-methoxy-5-sulphamoylbenzamide hydrochloride]				do not exhibit antiapomorphine activity in the rat even at high doses
COc1cccc(CN2CCC(NC(=O)c3cc(Cl)c(N)cc3OC)CC2)c1 [Compound 13, N-[4'-(1'-m-methoxy-benzyl)-piperidyl]-2-methoxy-4-amino-5-chloro-benzamidehydrochloride]	25			
COc1cc(N)c(Cl)cc1C(=O)NC1CCN(Cc2cccs2)CC1 [Compound 14]	12.5			
COc1ccc(Cl)cc1C(=O)NC1CCN(Cc2ccccc2)CC1 [Compound 10, N-[4'-(1'-benzyl)piperidyl]-2-methoxy-5-chlorobenzamide hydrochloride]	50			
COc1cc(NC(=O)C(F)(F)F)c(Cl)cc1C(=O)NC1CCN(Cc2ccccc2)CC1 [Compound 9, N-[4'-(1'-benzyl)piperidyl]-2-methoxy-4-(α,α, α-trifluoroacetamido)-5-chlorobenzamide hydrochloride]	3.12	more active as an anti-emetic	< 25	
COc1cc(NC(=O)CCl)c(Cl)cc1C(=O)NC1CCN(Cc2ccccc2)CC1 [Compound 3, N-[4'-(1'-benzyl)piperidyl]-2-methoxy-4-(α-chloroacetamido)-5-chlorobenzamide hydrochloride]	6.25	more active as an anti-emetic	< 25	
COc1ccccc1CN1CCC(NC(=O)c2cc(Cl)c(N)cc2OC)CC1 [Compound 20, N-[4'-(1'-o-methoxy-benzyl)-piperidyl]-2-methoxy-4-amino-5-chloro-benzamide]	25			
COc1cc(N)c(Cl)cc1C(=O)NC1CCN(Cc2cccc(Cl)c2)CC1 [Compound 17, N-[4'-(1'-m-chlorobenzyl)-piperidyl]-2-methoxy-4-amino-5-chloro-benzamide hydrochloride]	12.5			
COc1ccc(CN2CCC(NC(=O)c3cc(Cl)c(N)cc3OC)CC2)cc1 [Compound 18, N-[4'-(1'-p-methoxy-benzyl)-piperidyl]-2-methoxy-4-amino-5-chloro-benzamidehydrochloride]	3.12	more active as an anti-emetic		
COc1cc(NC(=O)CN2CCCCC2)c(Cl)cc1C(=O)NC1CCN(Cc2ccccc2)CC1 [Compound 4, N-[4'-(1'-benzyl)piperidyl] -2-methoxy-4-α-(1"-piperidyl) acetamido-5-chlorobenzamide dihydrochloride]	12.5		~12	
COc1cc(N)c(Cl)cc1C(=O)NC1CCN(Cc2ccccc2Cl)CC1 [Compound 21, N-[4'-(1'-o-chlorobenzyl)-piperidyl]-2-methoxy-4-amino-5-chloro-benzamide hydrochloride]	25			
